US20240226106A1, “INHIBITORS OF PLASMA KALLIKREIN” (SHIRE HUMAN GENETIC THERAPIES, INC., priority 2021, published 2024)

How the values were obtained:
plasma kallikrein = target: T1, plasma kallikrein (Homo sapiens, UniProt P03952); test: Neat human plasma assay (fluorogenic peptide), contact pathway-activated plasma; format: biochemical; settings: citrated human plasma, 10 nM human FXIIa activation, 100 μM PFR-AMC, room temperature; read-out: Human Plasma Assay: IC90
T1 construct: from tissue; host or cells: sodium citrate collected human plasma
Experimental: To analyze inhibition of plasma kallikrein in an ex vivo setting, the potency of compounds was measure in contact pathway-activated plasma assays. In a fluorogenic peptide substrate assay, test compounds dissolved in DMSO were added to sodium citrate collected human or rat plasma in a 96-well microplate. Alternatively, citrated plasma was collected from rats administered the compounds orally or by IV. 10 nM of human FXIIa (Enzyme Research Laboratories) diluted in PKa buffer (20 mM Tris-HCl, pH 7.5, 150 mM NaCl, 1 mM EDTA, 0.100 PEG-8000, and 0.1% Triton X-100) was added to the plasma, followed by the 100 μM of the profluorescent, synthetic plasma kallikrein substrate PFR-AMC (also diluted in PKa buffer). Final plasma concentration in the reaction was […]. Fluorescence was immediately monitored by excitation/emission wavelengths of 360 nm/480 nm respectively over a period of 5 minutes in a microplate reader. The resulting linear increase in fluorescence emission (reflecting PKa proteolysis of PFR-AMC substrate) was fit to extract a proteolytic rate (fluorescent units over time), and this rate was subsequently plotted against compound inhibitor concentration. Resulting plots were fit to a standard 4-parameter IC50/C90 equation to determine min/max values, IC50/90, and slope. All experimental steps were performed at room temperature.

[1] = target: human activated kallikrein enzyme (Homo sapiens, UniProt P03952); test: Inhibition of human activated plasma kallikrein, fluorogenic peptide substrate (PFR-AMC), 500 pM enzyme format; format: biochemical; settings: 500 pM activated kallikrein, 30 min preincubation, 10 min reaction, room temperature, read-out: Primary Dose Response Assay: Average EC50
Experimental: Compounds were evaluated for inhibition of the human activated kallikrein enzyme in two formats of an assay employing a fluorogenic peptide substrate. In one assay format, the concentrations of reagents were as follows: 20 mM Tris pH 7.5, 1 mM EDTA, 150 mM sodium chloride, 0.1% PEG-400, 0.1% Triton X-100, 500 pM activated kallikrein enzyme, […] Pro-Phe-Arg-7-amido-4-methylcoumarin (PFR-AMC) substrate. Prior to reaction initiation with substrate, enzyme and inhibitors were preincubated for 30 min at room temperature. After initiation with substrate, reactions were incubated for 10 min at room temperature and fluorescence emission at 460 nm from 380 nm excitation measured with a microplate reader. In another assay format, the concentrations of reagents were as follows: 20 mM Tris pH 7.5, 1 mM EDTA, 150 mM sodium chloride, 0.1% PEG-400, 0.1% Triton X-100, 5 pM activated kallikrein enzyme, 300 uM PFR-AMC substrate. Prior to reaction initiation with substrate, enzyme and inhibitors were preincubated for 30 min at room temperature. After initiation with substrate, reactions were incubated for 18 hr at room temperature and fluorescence emission at 460 nm from 380 nm excitation measured with a microplate reader.

Chain of human activated kallikrein enzyme (P03952 391-638 limits assumed): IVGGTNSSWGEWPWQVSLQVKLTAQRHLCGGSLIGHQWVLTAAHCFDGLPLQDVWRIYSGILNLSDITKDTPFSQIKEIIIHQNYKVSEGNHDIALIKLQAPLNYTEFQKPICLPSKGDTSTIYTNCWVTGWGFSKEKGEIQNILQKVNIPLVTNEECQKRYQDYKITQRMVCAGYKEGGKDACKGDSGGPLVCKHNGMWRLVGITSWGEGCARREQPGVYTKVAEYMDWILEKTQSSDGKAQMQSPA
Chain of human activated kallikrein enzyme (P03952 20-390 partner limits assumed): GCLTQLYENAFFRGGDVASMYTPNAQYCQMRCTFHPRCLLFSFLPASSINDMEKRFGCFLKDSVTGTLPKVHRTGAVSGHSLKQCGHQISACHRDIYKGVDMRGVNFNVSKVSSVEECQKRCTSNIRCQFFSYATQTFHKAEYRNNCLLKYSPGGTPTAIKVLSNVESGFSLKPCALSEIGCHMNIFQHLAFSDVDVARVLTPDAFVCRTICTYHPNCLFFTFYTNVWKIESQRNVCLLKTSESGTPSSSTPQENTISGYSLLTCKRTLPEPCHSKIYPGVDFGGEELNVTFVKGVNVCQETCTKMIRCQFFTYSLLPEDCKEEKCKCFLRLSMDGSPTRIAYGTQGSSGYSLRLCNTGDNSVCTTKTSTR
T1 sequence (P03952 391-638 limits assumed): as the sequence (P03952 391-638 limits assumed) above
T1 sequence (P03952 20-390 partner limits assumed): as the sequence (P03952 20-390 partner limits assumed) above

Compound	IC90 (plasma kallikrein) [nM]	EC50 [1] [nM]
N#Cc1ccc(Cl)cc1[C@H]1C[C@@H]1C(=O)Nc1cc(NCc2cn3cc(C4CC4)cnc3n2)ccn1 (racemic) [Example 22, rac-(1S*,2S*)-2-(5-chloro-2-cyanophenyl)-N-(4-(((6-cyclopropylimidazo[1,2-a]pyrimidin-2-yl)methyl)amino)pyridin-2-yl)cyclopropane-1-carboxamide]	5000 to 65000	< 2.5
O=C(Nc1cc(NCc2nc3ncc(C4CC4)cn3n2)ccn1)[C@@H]1C[C@]12CCc1ccc(Cl)cc12 (racemic) [Example 41, rac-(1S*,2S*)-6′-chloro-N-(4-(((6-cyclopropyl-[1,2,4]triazolo[1,5-a]pyrimidin-2-yl)methyl)amino)pyridin-2-yl)-2′,3′-dihydrospiro[cyclopropane-1,1′-indene]-2-carboxamide]	5000 to 65000	< 2.5
N#Cc1ccc(Cl)cc1[C@H]1C[C@@H]1C(=O)Nc1cc(NCc2nc3ncc(C4CC4)cn3n2)ccn1 (racemic) [Example 42, rac-(1S*,2S*)-2-(5-chloro-2-cyanophenyl)-N-(4-(((6-cyclopropyl-[1,2,4]triazolo[1,5-a]pyrimidin-2-yl)methyl)amino)pyridin-2-yl)cyclopropane-1-carboxamide]	500 to 5000	< 2.5
O=C(Nc1cc(NCc2cc3cc(C4CC4)cc(N4CCOC4=O)n3n2)ncn1)[C@H]1C[C@@H]1c1cc(Cl)ccn1 (racemic) [Example 56, rac-(1S*,2S*)-2-(4-chloropyridin-2-yl)-N-(6-(((5-cyclopropyl-7-(2-oxooxazolidin-3-yl)pyrazolo[1,5-a]pyridin-2-yl)methyl)amino)pyrimidin-4-yl)cyclopropane-1-carboxamide]	5000 to 65000	< 2.5
CN1C(=O)CN(c2cc(C3CC3)cc3cc(CNc4cc(NC(=O)[C@H]5C[C@@H]5c5cc(Cl)ccn5)ncn4)nn23)C1=O (racemic) [Example 57, rac-(1S*,2S*)-2-(4-chloropyridin-2-yl)-N-(6-(((5-cyclopropyl-7-(3-methyl-2,4-dioxoimidazolidin-1-yl)pyrazolo[1,5-a]pyridin-2-yl)methyl)amino)pyrimidin-4-yl)cyclopropane-1-carboxamide]	500 to 5000	< 2.5
Cc1ccnc([C@H]2C[C@@H]2C(=O)Nc2nccc(NCc3cn4cc(C5CC5)cnc4n3)n2)n1 (racemic) [Example 77, rac-(1S*,2S*)—N-(4-(((6-cyclopropylimidazo[1,2-a]pyrimidin-2yl)methyl)amino)pyrimidin-2-yl)-2-(4-methylpyrimidin-2-yl)cyclopropane-1-carboxamide]	500 to 5000	< 2.5
Cc1ccnc([C@H]2C[C@@H]2C(=O)Nc2cc(NCc3cn4cc(C5CC5)nc(N5CC(=O)N(C)C5=O)c4n3)ncn2)n1 (racemic) [Example 80, rac-(1S*,2S*)—N-(6-(((6-cyclopropyl-8-(3-methyl-2,4-dioxoimidazolidin-1-yl)imidazo[1,2-a]pyrazin-2-yl)methyl)amino)pyrimidin-4-yl)-2-(4-methylpyrimidin-2-yl)cyclopropane-1-carboxamide]	< 500	< 2.5
Cc1ccnc([C@H]2C[C@@H]2C(=O)Nc2ncc(F)c(NCc3cn4cc(C5CC5)nc(N5CC(=O)N(C)C5=O)c4n3)n2)n1 (racemic) [Example 84, rac-(1S*,2S*)—N-(4-(((6-cyclopropyl-8-(3-methyl-2,4-dioxoimidazolidin-1-yl)imidazo[1,2-a]pyrazin-2-yl)methyl)amino)-5-fluoropyrimidin-2-yl)-2-(4-methylpyrimidin-2-yl) cyclopropane-1-carboxamide]	< 500	< 2.5
Cc1ccnc([C@H]2C[C@@H]2C(=O)Nc2cc(N3C[C@@H](O)C[C@@H]3c3ccc(N4CC5CC5C4)nc3)ncn2)n1 (relative stereo) [Example 71, rac-(1S*,2S*)—N-(6-((2R^•,4S)-2-(6-(3-azabicyclo[3.1.0]hexan-3-yl)pyridin-3-yl)-4-hydroxypyrrolidin-1-yl)pyrimidin-4-yl)-2-(4-methylpyrimidin-2-yl)cyclopropane-1-carboxamide]	500 to 5000	2.5 to 25
Cc1ccnc([C@H]2C[C@@H]2C(=O)Nc2cc(N3C[C@@H](O)C[C@@H]3c3cn4cc(C5CC5)cnc4n3)ncn2)n1 (relative stereo) [Example 72, rac-(1S*,2S*)—N-(6-((2R,4S)-2-(6-cyclopropylimidazo[1,2-a]pyrimidin-2-yl)-4-hydroxypyrrolidin-1-yl)pyrimidin-4-yl)-2-(4-methylpyrimidin-2-yl)cyclopropane-1-carboxamide]	500 to 5000	< 2.5
Cc1ccnc([C@H]2C[C@@H]2C(=O)Nc2cc(N3C[C@@H](O)C[C@@H]3c3cn4cc(C5CC5)cnc4n3)ncn2)c1 (single isomer, unassigned) [Example 75, (1S*,2S*)—N-(6-((2R,4S)-2-(6-cyclopropylimidazo[1,2-a]pyrimidin-2-yl)-4-hydroxypyrrolidin-1-yl)pyrimidin-4-yl)-2-(4-methylpyridin-2-yl)cyclopropane-1-carboxamide]	500 to 5000	2.5 to 25
Cc1ccnc([C@H]2C[C@@H]2C(=O)Nc2nncc(N[C@H](C)c3cc4cc(C5CC5)cc(N5CC(=O)N(C)C5=O)n4n3)n2)n1 (single isomer, unassigned) [Example 102]	< 500	< 2.5
O=C(Nc1cc(NCc2cc3cc(C4CC4)cnc3s2)ccn1)[C@H]1C[C@@H]1c1cccc(Cl)c1 [Example 23, (1S,2S)-2-(3-chlorophenyl)-N-(4-(((5-cyclopropylthieno[2,3-b]pyridin-2-yl)methyl)amino)pyridin-2-yl)cyclopropane-1-carboxamide]	5000 to 65000	< 2.5
O=C(Nc1cc(NCc2nc3ccc(C4CC4)cn3n2)ccn1)[C@H]1C[C@@H]1c1cccc(Cl)c1 [Example 25, (1S,2S)-2-(3-chlorophenyl)-N-(4-(((6-cyclopropyl-[1,2,4]triazolo[1,5-a]pyridin-2-yl)methyl)amino)pyridin-2-yl)cyclopropane-1-carboxamide]	5000 to 65000	< 2.5
O=C(Nc1cc(NCc2nc3ccc(C4CC4)nn3n2)ccn1)[C@H]1C[C@@H]1c1cccc(Cl)c1 [Example 29, (1S,2S)-2-(3-chlorophenyl)-N-(4-(((6-cyclopropyl-[1,2,4]triazolo[1,5-b]pyridazin-2-yl)methyl)amino)pyridin-2-yl)cyclopropane-1-carboxamide]	5000 to 65000	2.5 to 25
O=C(Nc1cc(NCc2nc3ncc(C4CC4)cn3n2)ccn1)[C@H]1C[C@@H]1c1cccc(Cl)c1 [Example 31, (1S,2S)-2-(3-chlorophenyl)-N-(4-(((6-cyclopropyl-[1,2,4]triazolo[1,5-a]pyrimidin-2-yl)methyl)amino)pyridin-2-yl)cyclopropane-1-carboxamide]	500 to 5000	< 2.5
O=C(Nc1cc(N2C[C@@H](O)CC2c2ccc(N3CC4CC4C3)nc2)ncn1)[C@H]1C[C@@H]1c1cccc(Cl)c1 (stereo partly drawn) [Example 67, (S,2S)—N-(6-((4S)-2-(6-(3-azabicyclo[3.1.0]hexan-3-yl)pyridin-3-yl)-4-hydroxypyrrolidin-1-yl)pyrimidin-4-yl)-2-(3-chlorophenyl)cyclopropane-1-carboxamide]		25 to 500
O=C1CN(c2cc(C3CC3)cn3nc(CNc4cc(NC(=O)[C@H]5C[C@@H]5c5cc(Cl)ccn5)ncn4)nc23)C(=O)N1 [Example 68, (1S,2S)-2-(4-chloropyridin-2-yl)-N-(6-(((6-cyclopropyl-8-(2,4-dioxoimidazolidin-1-yl)-[1,2,4]triazolo[1,5-a]pyridin-2-yl)methyl)amino)pyrimidin-4-yl)cyclopropane-1-carboxamide]		< 2.5
Cc1ccnc([C@H]2C[C@@H]2C(=O)Nc2cc(NCc3cc(F)c4ncc(Cl)cc4c3)nc(C)n2)n1 [Example 91, (1S,2S)—N-(6-(((3-chloro-8-fluoroquinolin-6-yl)methyl)amino)-2-methylpyrimidin-4-yl)-2-(4-methylpyrimidin-2-yl)cyclopropane-1-carboxamide]		2.5 to 25
Cc1ccnc([C@H]2C[C@@H]2C(=O)Nc2cc(OCc3cc(F)c4ncc(Cl)cc4c3)cnn2)n1 [Example 92, (1S,2S)—N-(5-((3-chloro-8-fluoroquinolin-6-yl)methoxy)pyridazin-3-yl)-2-(4-methylpyrimidin-2-yl)cyclopropane-1-carboxamide]		2.5 to 25
